“Also recorded” adds a separate entry of the source. Where two headings read alike, the source gives them in different places.
How the values were obtained:
[1] = test system: B cells and T cells; assay: OCR of B cells and T cells treated with MPA and etomoxir; assay type: cell-based, human
Text: FIGS. 16A-16C show low dose MPA induces CPT1a-dependent FAO in B cells but not T cells.

[2] = test system: class-switched B cells; assay: Flow cytometry of CD11c and CPT1a on class-switched B cells of SOTRs by MMF dose; assay type: in vivo, human; details: SOTRs on high dose MMF or MPA (>1000 mg/per day or >721 mg/day)
Procedure: (§1) FIGS. 4A-4J show high dose MMF inhibits mitochondrial fatty acid oxidation. FIGS. 4A-4B show normalized mean fluorescent intensity (MFI) of CD11c and CPT1a on total class-switched B cells segregated by dose of MMF; high (>1000), low (<1000), or none. […] FIGS. 4D-4E show oxygen consumption rate (OCR) following mitochondrial stress test of PBMCs plated directly post thaw from SOTRs or HCs (FIG. 4D) or healthy PBMCs treated in vitro with high or low dose MPA 48 hours prior to plating (FIG. 4E).

[3] = test system: healthy PBMCs; assay: Seahorse OCR of healthy PBMCs treated in vitro with MPA; assay type: cell-based, human; details: for OCR: 48 hours prior to plating; for Effect on OCR increase of low dose MPA-treated cells: etomoxir (2 μM) 1 hour prior to measurement
Procedure: as §1
FIGS. 8A-81 show high dose MPA induces mitochondrial unresponsiveness. […] FIGS. 8D-8G show healthy PBMCs were treated with 5 μM MPA for 24 hours in complete media then rested overnight in low-nutrient media prior to analysis. Oxygen consumption rate (OCR) of exposed to long chain fatty acid palmitate (165 μM) (FIG. 8D), medium chain fatty acid octanoic acid (200 μM) (FIG. 8E), glucose (10 mM) and pyruvate (1 mM) (FIG. 8F), or glutamine (2 mM) (FIG. 8G) 20 minutes prior to analysis. FIGS. 8H-81 show fold change in baseline (FIG. 8H) or maximal (FIG. 81) OCR when healthy PBMCs were supplied with indicated substrates.
To test this hypothesis, cells were exposed to low dose etomoxir, an inhibitor of CPT1a transport of FAs into mitochondria. […] To confirm that high dose MPA inhibits FAO, palmitate (a long chain FA) was added exogenously to cultures 20 minutes prior to evaluation of mitochondrial respiration.

[4] = test system: PBMCs; assay: Viability of PBMCs after MPA treatment; assay type: cell-based, human; details: PBMCs 48 hours after 5 μM MPA, versus untreated
[5] = test system: T cells and B cells; assay: Cell Trace Violet proliferation of stimulated T cells and B cells in the presence of MPA; assay type: cell-based, human; details: 6 days
[6] = test system: healthy PBMCs; assay: Oil red O staining of healthy PBMCs treated in vitro with MPA; assay type: cell-based, human; details: high dose MPA (5 μM)
Procedure: Genes associated lipid synthesis were increased in total B cells from SOTRs (R or NR) in SCR.NA seq (FIG. 14A). PCA plot of lipidomics performed on total B cells derived from SOTRs or HCs (FIG. 14B). […] Accumulation of lipid droplets were measured by Oil Red O in PBMCs from HC or SOTR (FIG. 14D).

[7] = test system: PBMCs; assay: Oil red O staining of lipid droplets in PBMCs from SOTRs, ex vivo; set-up: species or system human; details: PBMCs from SOTRs on high dose MMF
Procedure: as §1
Due to the association with MMF dose and CPT1a expression, PBMCs from SOTRs receiving high dose, low dose, or no MMF were evaluated ex vivo for alterations in lipid metabolism. Immunosuppression dose is largely determined by estimation of graft function and the measurement of the blood levels of immunosuppressive drugs, although neither method is sensitive or specific for determining the current immunosuppressive status, particularly for MMF, where drug levels are not routinely measured. […] Mitochondrial bioenergetics were next measured directly ex vivo via the Agilent Seahorse XF Cell Mito Stress Test at basal levels and in response to mitochondrial stress, in the absence of additional stimulation or exogenous substrates. The oxygen consumption rate (OCR) was used as a measurement of mitochondrial respiration/oxidative phosphorylation (OXPHOS). […]

[8] = test system: PBMCs; assay: Seahorse XF Cell Mito Stress Test (OCR) of PBMCs from SOTRs, ex vivo; assay type: in vivo, human
Procedure: as §1
Due to the association with MMF dose and CPT1a expression, PBMCs from SOTRs receiving high dose, low dose, or no MMF were evaluated ex vivo for alterations in lipid metabolism. Immunosuppression dose is largely determined by estimation of graft function and the measurement of the blood levels of immunosuppressive drugs, although neither method is sensitive or specific for determining the current immunosuppressive status, particularly for MMF, where drug levels are not routinely measured. […] Mitochondrial bioenergetics were next measured directly ex vivo via the Agilent Seahorse XF Cell Mito Stress Test at basal levels and in response to mitochondrial stress, in the absence of additional stimulation or exogenous substrates. The oxygen consumption rate (OCR) was used as a measurement of mitochondrial respiration/oxidative phosphorylation (OXPHOS).

[9] = test system: SARS-COV-2 spike; assay type: in vivo, human; details: SOTRs on immunosuppression, two weeks post dose three
[10] = etomoxir (CPT1a inhibition), MPA-treated

SMILES: COc1c(C)c2c(c(O)c1C/C=C(\C)CCC(=O)O)C(=O)OC2 [MPA, mycophenolic acid]
- OCR of B cells ([1]; high dose MPA): blunted the increased OCR in B cells
- OCR of B cells versus T cells ([1]; low dose MPA): only B cells increased their OCR
- CD11c expression on class switched B cells [2]: significantly lower
- CPT1a expression on class switched B cells [2]: significantly lower
- Response to mitochondrial stress tests ([3]; high dose MPA): comparable manner to untreated cells
- Mitochondrial oxidation of supplemented substrates (medium-chain fatty acids, glucose, glutamine) ([3]; high dose MPA (5 μM)): inhibits mitochondrial oxidation of various substrates; also recorded: diminished mitochondrial oxidation of various supplemented substrates
- OCR ([3]; high dose MPA (5 μM)): reduced OCR compared to low dose
- Oxidation of exogenous palmitate (OCR) ([3]; high dose MPA, palmitate (165 μM) 20 minutes prior): not able to oxidize exogenous long-chain fatty acid palmitate; also recorded: unable to oxidize palmitate
- OCR ([3]; low dose MPA): directly induced increased OCR; also recorded: increased OCR compared to untreated PBMCs
- Cell viability [4]: equivalent cell viability
- Lymphocyte proliferation ([5]; high dose MPA (5 μM)): completely inhibit proliferation
- Lymphocyte proliferation ([5]; low dose MPA (0.05 μM)): limit proliferation
- Accumulation of lipids (Oil Red O) [6]: increased accumulation of lipids
- Accumulation of lipids (Oil Red O) ([6]; listed as mycophenolic acid): Accumulation of lipid droplets was seen

SMILES: COc1c(C)c2c(c(O)c1C/C=C(\C)CCC(=O)OCCN1CCOCC1)C(=O)OC2 [MMF, mycophenolate mofetil]
- CD11c expression on class switched B cells [2]: significantly lower
- CPT1a expression on class switched B cells [2]: significantly lower
- Intracellular lipid droplets (Oil Red O) [7]: higher levels of Oil Red O staining; also recorded: accumulation of intracellular lipid droplets
- Oxygen consumption rate (OCR) ([8]; PBMCs from SOTRs on high dose MMF): reduced oxygen consumption rate; also recorded: reduced OCR compared to other SOTRs
- Basal respiration (OCR) ([8]; PBMCs from SOTRs on low dose MMF, no exogenous substrates): significantly higher basal respiration compared to HCs
- Association of treatment with anti-S IgG response to third vaccine dose [9]: specifically associated with a lack of response
- Association of treatment with anti-S IgG response to third vaccine dose ([9]; listed as mycophenolate mofetil): all participants who failed to respond to a 3rd dose received

SMILES: CCOC(=O)[C@@]1(CCCCCCOc2ccc(Cl)cc2)CO1 [etomoxir]
- OCR of B cells [1, 10]: reduced OCR to baseline levels in B cells
- OCR of T cells [1, 10]: had no effect on T cells
- Effect on OCR increase of low dose MPA-treated cells [3]: completely reversed the increase in OCR
- Effect on OCR increase of low dose MPA-treated cells ([3]; listed as Etomoxir): completely reversed the increase of OCR

Source: US20250264460A1, “METHOD OF MEASURING LEVEL OF IMMUNE SUPPRESSION” (THE JOHNS HOPKINS UNIVERSITY, priority 2022, published 2025)
